Laboratory results taken from US20180168208A1 (priority 2014, published 2018).
“And” between values parts separate entries of the source, which are not always exact repeats. Equal values may be shown once. Where a name gives a salt, the structure may show the parent alone.

Assays:
[1] = target: T1, T1R1/T1R3 receptor (Felis catus, UniProt E3UMS2); assay: Example 8: agonist screening of transmembrane compounds on T1R1/T1R3 in HEK293 cells; type: cell-based, cat; details: for T1R1/T1R3 agonist: transmembrane compound tested at 0.01, 0.1 and 1 mM, HEK293 cells expressing T1R1/T1R3, intracellular calcium; for agonist profile assessment (agonist activity): transmembrane compound alone
Procedure: (§1) HEK293 cells that stably express T1R3 and inducibly express T1R1 were exposed to a transmembrane compound. Activation of the T1R1/T1R3 receptor was detected by a change in intracellular calcium levels using a calcium sensitive fluorescent dye and/or a luminescent reporter system. […] A FLIPR® Tetra or a FlexStation® 3 was used for data capture.
Each transmembrane compound was tested at concentrations of 0.01 mM, 0.1 mM, and 1 mM. […] To generate the dose response curves, the transmembrane compound was tested at concentrations of between 0.0001 mM and 1.0 mM in the presence of GMP and Ala.

[2] = target: T1, T1R1/T1R3 receptor; assay: Example 8: PAM screening of transmembrane compounds with GMP and Ala on T1R1/T1R3 in HEK293 cells; type: cell-based, cat; details: for T1R1/T1R3 PAM: compound at 0.01, 0.1 and 1 mM in combination with GMP+Ala mixtures (T1-T4), PAM if response greater than sum of compound alone and GMP+Ala alone; for PAM profile assessment (PAM activity): in the presence of GMP and Alanine
Text: as §1, with “to” for “to a”, “compound alone or in combination with Ala and GMP to activate the umami receptor.” for “compound.”
Dose response curves were generated for each transmembrane compound at concentrations of 0 (buffer only), 0.01, 0.1 and 1 mM, wherein each of the three concentrations of transmembrane compound was tested in combination with 0.03 mM GMP+100 mM Ala (T1); 0.6 mM GMP+10 mM Ala (T2); 0.1 mM GMP+60 mM Ala (T3) and 0.3 mM GMP+60 mM Ala (T4). The T4 mixture was also tested in a 2-fold dilution series (the T4(×) Concentration). In these experiments, the first test concentration was 2× (2 times) the T4 concentration. The subsequent test concentrations were 2-fold dilutions from that (1×, 0.5×etc.). This dilution series was tested with or without the addition of the test compound at a constant 0.3 mM concentration.
Activation of the umami receptor was also determined in the presence of 1 mM GMP+100 mM Ala to generate a “maximum” umami receptor activation level.

[3] = target: T1, T1R1/T1R3 receptor; assay: cell-based; type: cell-based
Procedure, shortened: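 HEK293 cells stably expressing T1R3 with inducible T1R1 received serial dilutions of compound (up to 10 mM), alone or with amino acids and/or nucleotides. Activation was read as an intracellular calcium change with a calcium-sensitive fluorescent dye. Cells expressing T1R3 without T1R1 served as control.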

[4] = target: T1, T1R1/T1R3 receptor; assay: Example 6: activation of T1R1/T1R3 by transmembrane compounds, conducted as in Example 5; type: cell-based
Text: (§2) HEK293 cells that stably express T1R3 and inducibly express T1R1 were exposed to transmembrane compounds alone or in combination with one or more amino acids and/or one or more nucleotides to activate the umami receptor. Activation of the T1R1/T1R3 receptor was detected by a change in intracellular calcium levels using a calcium sensitive fluorescent dye. Cells that express T1R3 but not T1R1 were used as a control. A FLIPR® Tetra or a FlexStation® 3 was used for data capture.
(§3) In each experiment, serial dilutions of up to 10 mM of the transmembrane compound were added to the T1R1/T1R3-expressing cells.

[5] = target: T1, T1R1/T1R3 receptor; assay: cell-based
Text: as §2, with “nucleotide derivatives” for “transmembrane compounds”, “alone” for “alone or in combination with one or more amino acids and/or one or more nucleotides”
as §2, with “nucleotide derivatives” for “transmembrane compounds”, “dye and/or a luminescent reporter system.” for “dye.”
as §2, §3

Structure (SMILES)	T1R1/T1R3 agonist [1]	T1R1/T1R3 PAM [2]	further results
O=C(CN1C(=O)C(=O)N(Cc2ccccc2)C1=O)c1ccc2c(c1)OCCCO2 [Formula 8, 1-benzyl-3-(2-(3,4-dihydro-2H-benzo[b][1,4]dioxepin-7-yl)-2-oxoethyl)imidazolidine-2,4,5-trione]	No	Weak PAM	
N#Cc1cccc(NC(=O)CN2C(=O)C(=O)N(Cc3ccccc3)C2=O)c1 [Formula 9, 2-(3-benzyl-2,4,5-trioxoimidazolidin-1-yl)-N-(3-cyanophenyl)acetamide]	No	No	
COc1ccccc1C(=O)CN1C(=O)C(=O)N(Cc2cccs2)C1=O [Formula 10, 1-(2-(2-methoxyphenyl)-2-oxoethyl)-3-(thiophen-2-ylmethyl)imidazolidine-2,4,5-trione]	No	No	
O=C(CN1C(=O)C(=O)N(CCc2cccs2)C1=O)c1cccc2ccccc12 [Formula 11, 1-(2-(naphthalen-1-yl)-2-oxoethyl)-3-(2-(thiophen-2-yl)ethyl)imidazolidine-2,4,5-trione]	No	No	
O=C(CN1C(=O)C(=O)N(Cc2ccccc2)C1=O)c1ccc(Cl)s1 [Formula 12, 1-benzyl-3-(2-(5-chlorothiophen-2-yl)-2-oxoethyl)imidazolidine-2,4,5-trione]	No	Weak PAM	
O=C1C(=O)N(Cc2ccccc2)C(=S)N1Cc1ccccc1 [Formula 13, 1,3-dibenzyl-2-thioxoimidazolidine-4,5-dione]	No	No	
CCCC(CCC)NC(=O)c1ccc2c(c1)OCO2 [Formula 14, N-(heptan-4-yl)benzo[d][1,3]dioxole-5-carboxamide]	Yes	Yes	
COC(=O)[C@H](Cc1ccccc1)NCc1ccccc1.Cl [Formula 15, N-Benzyl-L-phenylalanine methyl ester hydrochloride]	Yes	Yes	
COC(=O)[C@@H](Cc1ccccc1)NCc1ccccc1.Cl [Formula 16, N-Benzyl-D-Phenylalanine methyl ester hydrochloride]	Yes	Yes	
COC(=O)[C@H](CC(C)C)NCc1ccccc1.Cl [Formula 18, Benzyl-L-leucine methyl ester hydrochloride]	Yes	Yes	
COC(=O)C(NCc1ccccc1)c1ccccc1 (stereo not shown) [Formula 19, Methyl-2-benzylamino-2-phenylacetate]	Yes	Yes	
Cl.N[C@@H](Cc1ccccc1)C(=O)OCc1ccccc1 [Formula 20, L-Phenylalanine benzyl ester hydrochloride]	Yes	Yes	
N[C@@H](Cc1ccc(O)cc1)C(=O)OCc1ccccc1 [Formula 21, L-Tyrosine benzyl ester]	No	No	
O=C(O)[C@H](Cc1ccc(O)cc1)NCc1ccccc1 [Formula 22, N-Benzyl-L-Tyrosine]	No	No	
Cc1ccc(CNC(Cc2ccccc2)C(=O)O)cc1 (stereo not shown) [Formula 23, 2-((4-methylbenzyl)amino)-3-phenylpropanoic acid]	No	No	
O=C1CC(=O)N(Cc2ccccc2)C(=O)N1Cc1ccccc1 [Formula 24, 1,3-dibenzylpyrimidine-2,4,6(1H,3H,5H)-trione]	Yes	No	
Cl.N[C@@H](Cc1ccccc1)C(=O)OCc1ccccc1 [L-Phenylalanine benzyl ester hydrochloride]			agonist profile assessment (agonist activity) [1]: agonist; PAM profile assessment (PAM activity) [2]: PAM activity
COC(=O)C(NCc1ccccc1)c1ccccc1 (stereo not shown) [Methyl-2-benzylamino-2-phenylacetate]			agonist profile assessment (agonist activity) [1]: agonist; PAM profile assessment (PAM activity) [2]: PAM activity
CCCC(CCC)NC(=O)c1ccc2c(c1)OCO2 [N-(heptan-4-yl)benzo[d][1,3]dioxole-5-carboxamide]			Max resp ΔF/F +Alanine ([3]; + Alanine, Table 17): 1.7725 and 1.2; Max resp ΔF/F +IMP ([3]; + IMP (0.2 mM), Table 17): 1.4725; Max resp ΔF/F +Alanine ([3]; +Alanine (20 mM), Table 18): 1.2 and 1.7725; EC50 ([3]; +Alanine (20 mM), Table 18, read-out: EC50 +Alanine): 420 µM and 1100 µM; Max resp ΔF/F +IMP ([3]; +IMP (0.2 mM), Table 18): 1.393 and 1.473; EC50 ([3]; EC50 + IMP, + IMP (0.2 mM), Table 17): 90 µM and 100 µM; EC50 ([3]; EC50 +Alanine + IMP, +Alanine (20 mM) + IMP (0.2 mM), Table 18): 30 µM and 100 µM; EC50 ([3]; EC50 +IMP, +IMP (0.2 mM), Table 18): 100 µM and 90 µM; EC50 ([3]; EC50 - with Ala (20 mM) and IMP (0.2 mM), with 20 mM alanine and 0.2 mM IMP): 30 ± 30 µM; EC50 ([3]; EC50 - with Ala (20 mM), with 20 mM alanine): 420 ± 60 µM; EC50 ([3]; EC50 - with IMP (0.2 mM), with 0.2 mM IMP): 90 ± 40 µM; EC50 ([3]; alone in buffer, read-out: EC50 - alone): 260 ± 90 µM; EC50 ([3]; compound alone in buffer, Table 17, read-out: EC50 + buffer (alone)): 700 µM and 260 µM; EC50 ([3]; compound alone in buffer, Table 18, read-out: EC50 +buffer (alone)): 260 µM and 700 µM; EC50 ([3]; read-out: EC50 + Alanine): 1100 µM and 420 µM; agonist profile assessment (agonist activity) [1]: agonist; PAM profile assessment (PAM activity) [2]: PAM activity
COC(=O)[C@@H](Cc1ccccc1)NCc1ccccc1.Cl [N-Benzyl-D-Phenylalanine methyl ester hydrochloride]			agonist profile assessment (agonist activity) [1]: agonist; PAM profile assessment (PAM activity) [2]: PAM activity
COC(=O)[C@H](Cc1ccccc1)NCc1ccccc1 [N-benzyl-L-phenylalanine methyl ester HCl]			EC50 ([4]; T1R1/T1R3 EC50 +20 mM L-alanine, +20 mM L-alanine): 50 ± 1 µM; EC50 ([4]; T1R1/T1R3 EC50 alone in buffer, alone in buffer): 30 ± 2 µM
COC(=O)[C@H](Cc1ccccc1)NCc1ccccc1.Cl [N-benzyl-L-phenylalanine methyl ester hydrochloride]			Max resp % of IMP, +Alanine (20 mM) [5]: 273.4%; Thres (mM), +Alanine (20 mM) [5]: 0.01 mM; Max resp ΔF/F, +IMP (0.2 mM) ([5]; in the presence of 0.2 mM IMP): 2.2500 ΔF/F; Max resp % of Ala, +IMP (0.2 mM) ([5]; in the presence of 0.2 mM IMP, relative to alanine): 289.4%; Thres (mM), +IMP (0.2 mM) ([5]; threshold concentration in the presence of 0.2 mM IMP): 0.003 mM; agonist profile assessment (agonist activity) [1]: agonist; PAM profile assessment (PAM activity) [2]: PAM activity
